Reference: patent US20100056508A1, “AMINE DERIVATIVES AND THEIR USE IN BETA-2-ADRENORECEPTOR MEDIATED DISEASES” (ASTRAZENECA AB, priority 2006, published 2010)
Structures can show the parent of a compound that is named as a salt.

Assays:
Adrenergic β2 = target: T1, Adrenergic β2 (Homo sapiens, UniProt P07550); test: Adrenergic β2 mediated cAMP production in H292 cells (AlphaScreen cAMP detection); format: cell-based; parameters: key to β2 Int Act: fraction of formoterol maximum activity (formoterol = 1); settings: for β2 Int Act: Intrinsic Activity as a fraction relative to the maximum activity determined for formoterol; for EC50: cAMP production, 60 minutes at room temperature, 300 μM rolipram, read-out: β2 pEC50 (converted)
T1 construct: Adherent H292 cells were removed from tissue culture flasks; endogenous in cells; host or cells: H292 cells
T1 sequence (P07550 whole entry): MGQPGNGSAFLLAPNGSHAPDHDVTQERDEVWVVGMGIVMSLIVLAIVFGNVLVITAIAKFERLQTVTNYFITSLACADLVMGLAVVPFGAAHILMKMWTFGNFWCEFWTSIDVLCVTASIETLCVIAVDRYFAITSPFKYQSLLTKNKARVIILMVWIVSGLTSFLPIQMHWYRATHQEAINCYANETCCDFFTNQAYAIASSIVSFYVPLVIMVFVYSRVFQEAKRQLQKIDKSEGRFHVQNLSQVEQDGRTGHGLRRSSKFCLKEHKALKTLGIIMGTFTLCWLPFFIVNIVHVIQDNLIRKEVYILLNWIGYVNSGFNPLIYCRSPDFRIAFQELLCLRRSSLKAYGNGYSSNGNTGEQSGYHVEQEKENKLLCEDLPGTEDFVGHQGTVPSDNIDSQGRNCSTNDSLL
Method: Adrenergic β2 Mediated cAMP Production
H292 cells were grown in 225 cm2 flasks incubator at 37° C., 5% CO2 in RPMI medium containing, 10% (v/v) FBS (foetal bovine serum) and 2 mM L-glutamine.
Adherent H292 cells were removed from tissue culture flasks by treatment with Accutase™ cell detachment solution for 15 minutes. Flasks were incubated for 15 minutes in a humidified incubator at 37° C., 5% CO2. Detached cells were re-suspended in RPMI media (containing 10% (v/v) FBS and 2 mM L-glutamine) at 1×10^6 cells per mL. 10000 cells in 100 μL were added to each well of a tissue-culture-treated 96-well plate and the cells incubated overnight in a humidified incubator at 37° C., 5% CO2. The culture media was removed and cells were washed twice with 100 μL assay buffer and replaced with 50 μL assay buffer (HBSS solution containing 10 mM HEPES pH7.4 and 5 mM glucose). Cells were rested at room temperature for 20 minutes after which time 25 μL of rolipram (1.2 mM made up in assay buffer containing 2.4% (v/v) dimethylsulphoxide) was added. Cells were incubated with rolipram for 10 minutes after which time test compounds were added and the cells were incubated for 60 minutes at room temperature. The final rolipram concentration in the assay was 300 μM and final vehicle concentration was 1.6% (v/v) dimethylsulphoxide. The reaction was stopped by removing supernatants, washing once with 100 μL assay buffer and replacing with 50 μL lysis buffer. The cell monolayer was frozen at −80° C. for 30 minutes (or overnight).
AlphaScreen™ cAMP Detection
The concentration of cAMP (cyclic adenosine monophosphate) in the cell lysate was determined using AlphaScreen™ methodology. The frozen cell plate was thawed for 20 minutes on a plate shaker then 10 μL of the cell lysate was transferred to a 96-well white plate. 40 μL of mixed AlphaScreen™ detection beads pre-incubated with biotinylated cAMP, was added to each well and the plate incubated at room temperature for 10 hours in the dark. The AlphaScreen™ signal was measured using an EnVision spectrophotometer (Perkin-Elmer Inc.) with the recommended manufacturer's settings. cAMP concentrations were determined by reference to a calibration curve determined in the same experiment using standard cAMP concentrations. Concentration response curves for agonists were constructed and data was fitted to a four parameter logistic equation to determine both the pEC50 and Intrinsic Activity. Intrinsic Activity was expressed as a fraction relative to the maximum activity determined for formoterol in each experiment.

[1] = target: T2, recombinant human α1D receptor (Homo sapiens, UniProt P25100); test: Adrenergic α1D selectivity assay, [3H]-prazosin binding to membranes; settings: inhibition of [3H]-prazosin binding, HEK cell membranes, read-out: α1 bind pIC50 (converted)
T2 construct: expressed in transfected cells; host or cells: human embryonic kidney 293 cells (HEK93 [sic]), membranes
T2 sequence (P25100 1-572): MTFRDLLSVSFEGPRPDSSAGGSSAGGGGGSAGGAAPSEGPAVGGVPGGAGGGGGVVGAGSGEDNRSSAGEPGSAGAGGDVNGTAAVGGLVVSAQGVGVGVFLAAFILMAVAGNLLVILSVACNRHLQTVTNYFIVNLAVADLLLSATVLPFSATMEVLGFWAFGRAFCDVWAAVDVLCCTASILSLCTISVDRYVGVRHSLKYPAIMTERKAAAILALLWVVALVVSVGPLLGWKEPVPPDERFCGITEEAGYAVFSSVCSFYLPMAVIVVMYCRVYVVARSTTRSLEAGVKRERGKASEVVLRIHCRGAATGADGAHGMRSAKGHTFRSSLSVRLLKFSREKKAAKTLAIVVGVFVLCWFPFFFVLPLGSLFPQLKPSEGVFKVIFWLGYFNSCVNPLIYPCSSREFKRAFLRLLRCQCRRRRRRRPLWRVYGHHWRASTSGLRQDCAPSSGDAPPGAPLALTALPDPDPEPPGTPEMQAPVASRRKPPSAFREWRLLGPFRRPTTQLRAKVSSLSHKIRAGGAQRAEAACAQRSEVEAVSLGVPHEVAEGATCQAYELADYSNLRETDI
Method: Membranes were prepared from human embryonic kidney 293 ([…]) cells expressing recombinant human α1D receptor. These were diluted in Assay Buffer (50 mM HEPES, 1 mM EDTA, pH 7.4) to provide a final concentration of membranes that gave a clear window between maximum and minimum specific binding.
Assays were performed in U-bottomed 96-well polypropylene plates. 10 μL [^3H]-prazosin (0.3 nM final concentration) and […] of test compound (10× final concentration) were added to each test well. For each assay plate 8 replicates were obtained for [^3H]-prazosin binding in the presence of 10 μL vehicle (10% (v/v) DMSO in Assay Buffer; defining maximum binding) or 10 μL BMY7378 (10 μM final concentration; defining non-specific binding (NSB)). Membranes were then added to achieve a final volume of 100 μL. The plates were incubated for 2 hours at room temperature and then filtered onto PEI coated GF/B filter plates, pre-soaked for 1 hour in Assay Buffer, using a 96-well plate Tomtec cell harvester. Five washes with 250 μL wash buffer (50 mM HEPES, 1 mM EDTA, pH 7.4) were performed at 4° C. to remove unbound radioactivity. The plates were dried then sealed from underneath using Packard plate sealers and MicroScint-O (50 μL) was added to each well. The plates were sealed (TopSeal A) and filter-bound radioactivity was measured with a scintillation counter (TopCount, Packard BioScience) using a 3-minute counting protocol.
(§1) Total specific binding (B0) was determined by subtracting the mean NSB from the mean maximum binding. NSB values were also subtracted from values from all other wells. […] Data was fitted to a four parameter logistic equation to determine the compound potency, which was expressed as pIC50 (negative log molar concentration inducing 50% inhibition of [^3H]-prazosin binding).

[2] = target: T3, recombinant human Dopamine Subtype D2s receptors (Homo sapiens, UniProt P14416); test: Dopamine D2 selectivity assay, [3H]-spiperone binding to membranes; settings: inhibition of [3H]-spiperone binding, read-out: D2 bind pIC50 (converted)
T3 construct: purchased Perkin Elmer
T3 sequence (P14416 1-414 isoform P14416-2): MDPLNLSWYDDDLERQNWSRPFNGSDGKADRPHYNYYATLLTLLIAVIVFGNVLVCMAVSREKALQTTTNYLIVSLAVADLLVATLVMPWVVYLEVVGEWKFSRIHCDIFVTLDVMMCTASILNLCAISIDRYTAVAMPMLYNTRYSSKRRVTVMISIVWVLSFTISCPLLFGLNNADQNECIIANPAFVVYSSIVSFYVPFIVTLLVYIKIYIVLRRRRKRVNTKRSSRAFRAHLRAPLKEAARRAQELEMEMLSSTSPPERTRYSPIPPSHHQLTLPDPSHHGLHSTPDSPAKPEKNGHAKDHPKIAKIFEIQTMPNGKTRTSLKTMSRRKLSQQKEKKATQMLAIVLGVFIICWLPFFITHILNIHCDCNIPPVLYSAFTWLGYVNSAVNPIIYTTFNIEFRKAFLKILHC
Method: Membranes containing recombinant human Dopamine Subtype D2s receptors were obtained from Perkin Elmer. These were diluted in Assay Buffer (50 mM HEPES, 1 mM EDTA, 120 mM NaCl, 0.1% gelatin, pH 7.4) to provide a final concentration of membranes that gave a clear window between maximum and minimum specific binding.
Assays were performed in U-bottomed 96-well polypropylene plates. 30 μL [^3H]-spiperone (0.16 nM final concentration) and 30 μL of test compound (10× final concentration) were added to each test well. For each assay plate 8 replicates were obtained for [^3H]-spiperone binding in the presence of 30 μL vehicle (10% (v/v) DMSO in Assay Buffer; defining maximum binding) or 30 μL Haloperidol (10 μM final concentration; defining non-specific binding (NSB)). Membranes were then added to achieve a final volume of 300 μL. The plates were incubated for 2 hours at room temperature and then filtered onto PEI coated GF/B filter plates, pre-soaked for 1 hour in Assay Buffer, using a 96-well plate Tomtec cell harvester. Five washes with 250 μL wash buffer (50 mM HEPES, 1 mM EDTA, 120 mM NaCl, pH 7.4) were performed at 4° C. to remove unbound radioactivity. The plates were dried then sealed from underneath using Packard plate sealers and MicroScint-0 (50 μL) was added to each well. The plates were sealed (TopSeal A) and filter-bound radioactivity was measured with a scintillation counter (TopCount, Packard BioScience) using a 3-minute counting protocol.
as §1, with “[^3H]-spiperone” for “[^3H]-prazosin”

Structure (SMILES) | β2 Int Act (Adrenergic β2) | EC50 (Adrenergic β2) [nM] | IC50 [1] [nM] | IC50 [2] [nM]
Cc1cccc(CCNCCC(=O)N(CCNCCc2ccc(O)c3[nH]c(=O)ccc23)C2CCCCCC2)c1 [Example 8, N-Cycloheptyl-N-(2-(2-(8-hydroxy-2-oxo-1,2-dihydroquinolin-5-yl)ethylamino)ethyl)-3-(3-methylphenethylamino)propanamide bis(trifluoroacetate)] | 0.79 | 6.31 | 100 | 398
O=C(CCNCCc1ccc(F)cc1)N(CCNCCc1ccc(O)c2[nH]c(=O)ccc12)C1CCCCCC1 [Example 6, N-Cycloheptyl-3-(4-fluorophenethylamino)-N-(2-(2-(8-hydroxy-2-oxo-1,2-dihydroquinolin-5-yl)ethylamino)ethyl)propanamide bis(trifluoroacetate)] | 0.65 | 31.6 | 50.1 | 251
O=C(CCNCCc1cccc(F)c1)N(CCNCCc1ccc(O)c2[nH]c(=O)ccc12)C1CCCCCC1 [Example 5, N-Cycloheptyl-3-(3-fluorophenethylamino)-N-(2-(2-(8-hydroxy-2-oxo-1,2-dihydroquinolin-5-yl)ethylamino)ethyl)propanamide bis(trifluoroacetate)] | 0.82 | 7.94 | 158 | 501
CCCCN(CCNCCc1ccc(O)c2[nH]c(=O)ccc12)C(=O)CCOCCc1ccccc1 [Example 1, N-Butyl-N-(2-(2-(8-hydroxy-2-oxo-1,2-dihydroquinolin-5-yl)ethylamino)ethyl)-3-phenethoxypropanamide hydrochloride] | 0.9 | 398 | – | –

Further lines, results first:

β2 Int Act (Adrenergic β2) | EC50 (Adrenergic β2) [nM] | IC50 [1] [nM] | IC50 [2] [nM] | Structure (SMILES)
0.92 | 5.01 | 501 | 3980 | Cl.O=C(CCOCCc1cccc(F)c1)N(CCNCCc1ccc(O)c2[nH]c(=O)ccc12)C1CCCCC1 [Example 72, N-Cyclohexyl-3-(3-fluorophenethoxy)-N-(2-(2-(8-hydroxy-2-oxo-1,2-dihydroquinolin-5-yl)ethylamino)ethyl)propanamide hydrochloride]
0.94 | 3.98 | 631 | 5010 | Cl.O=C(CCOCCc1ccccc1F)N(CCNCCc1ccc(O)c2[nH]c(=O)ccc12)C1CCCCC1 [Example 73, N-Cyclohexyl-3-(2-fluorophenethoxy)-N-(2-(2-(8-hydroxy-2-oxo-1,2-dihydroquinolin-5-yl)ethylamino)ethyl)propanamide hydrochloride]
0.67 | 50.1 | 316 | 126 | O=C(CCNCCc1cccc(-c2ccccc2)c1)N(CCNCCc1ccc(O)c2[nH]c(=O)ccc12)C1CCCCCC1 [Example 12, 3-(2-(Biphenyl-3-yl)ethylamino)-N-cycloheptyl-N-(2-(2-(8-hydroxy-2-oxo-1,2-dihydroquinolin-5-yl)ethylamino)ethyl)propanamide bis(trifluoroacetate)]
0.86 | 2.51 | 39.8 | 79.4 | O=C1COc2c(CCNCCN(C(=O)CCNCCc3ccccc3Cl)C3CCCCC3)ccc(O)c2N1 [Example 28, 3-(2-Chlorophenethylamino)-N-cyclohexyl-N-(2-(2-(5-hydroxy-3-oxo-3,4-dihydro-2H-benzo[b][1,4]oxazin-8-yl)ethylamino)ethyl)propanamide bis(trifluoroacetate)]
0.91 | 39.8 | – | – | C[C@H](CNCCC(=O)N(CCNCCc1ccc(O)c2[nH]c(=O)ccc12)C1CCCCCC1)c1ccccc1 [Example 9, (S)—N-Cycloheptyl-N-(2-(2-(8-hydroxy-2-oxo-1,2-dihydroquinolin-5-yl)ethylamino)ethyl)-3-(2-phenylpropylamino)propanamide bis(trifluoroacetate)]
0.85 | 10 | 631 | 3980 | Cl.O=C(CCOCCc1ccc(F)cc1)N(CCNCCc1ccc(O)c2[nH]c(=O)ccc12)C1CCCCC1 [Example 71, N-Cyclohexyl-3-(4-fluorophenethoxy)-N-(2-(2-(8-hydroxy-2-oxo-1,2-dihydroquinolin-5-yl)ethylamino)ethyl)propanamide hydrochloride]
1.01 | 20 | 794 | – | O=C(CCOCCc1cc(F)cc(F)c1)N(CCNCCc1ccc(O)c2[nH]c(=O)ccc12)C1CCCCC1 [Example 78, N-Cyclohexyl-3-(3,5-difluorophenethoxy)-N-(2-(2-(8-hydroxy-2-oxo-1,2-dihydroquinolin-5-yl)ethylamino)ethyl)propanamide trifluoroacetate]
